Measured values taken from US20250098679A1, “HERBICIDAL PYRIDONE DERIVATIVES” (SYNGENTA CROP PROTECTION AG, priority 2021, published 2025).

Key:
Format in all cases: in vivo
Settings in all cases: evaluated after 13 days
Setaria faberi (SETFA) [1] = test: Post-emergence Test, Setaria faberi (SETFA); design: key to percentage damage caused to the plant, SETFA (five-point scale): 5=81-100%, 4=61-80%, 3=41-60%, 2=21-40%, 1=0-20% damage
Method in brief: (§1)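 Scores are percentage plant damage on a 1–5 scale (1=0-20%, 2=21-40%, 3=41-60%, 4=61-80%, 5=81-100%), read 13 days after treatment. Pots received a spray at 1000 g/ha unless otherwise stated, formulated in acetone/water (50:50) containing 0.5% Tween 20.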

Setaria faberi (SETFA) [2] = test: Pre-emergence Test, Setaria faberi (SETFA)
[3] = tested on: Echinochloa crus-galli (ECHCG); test: Post-emergence Test, Echinochloa crus-galli (ECHCG); design: key to percentage damage caused to the plant, ECHCG (five-point scale): 5=81-100%, 4=61-80%, 3=41-60%, 2=21-40%, 1=0-20% damage
Method in brief: as §1

Zea mays (ZEAMX) [4] = test: Post-emergence Test, Zea mays (ZEAMX); design: key to percentage damage caused to the plant, ZEAMX (five-point scale): 5=81-100%, 4=61-80%, 3=41-60%, 2=21-40%, 1=0-20% damage
Method in brief: as §1

[5] = tested on: Echinochloa crus-galli (ECHCG); test: Pre-emergence Test, Echinochloa crus-galli (ECHCG)
[6] = tested on: Ipomoea hederacea (IPOHE); test: Post-emergence Test, Ipomoea hederacea (IPOHE); design: key to percentage damage caused to the plant, IPOHE (five-point scale): 5=81-100%, 4=61-80%, 3=41-60%, 2=21-40%, 1=0-20% damage
Method in brief: as §1

[7] = tested on: Amaranthus retoflexus (AMARE); test: Pre-emergence Test, Amaranthus retoflexus (AMARE)
Zea mays (ZEAMX) [8] = test: Pre-emergence Test, Zea mays (ZEAMX)
[9] = tested on: Amaranthus retoflexus (AMARE); test: Post-emergence Test, Amaranthus retoflexus (AMARE); design: key to percentage damage caused to the plant, AMARE (five-point scale): 5=81-100%, 4=61-80%, 3=41-60%, 2=21-40%, 1=0-20% damage
Method in brief: as §1

[10] = tested on: Amaranthus palmeri (AMAPA); test: Pre-emergence Test, Amaranthus palmeri (AMAPA)
[11] = tested on: Ipomoea hederacea (IPOHE); test: Pre-emergence Test, Ipomoea hederacea (IPOHE)
[12] = tested on: Amaranthus palmeri (AMAPA); test: Post-emergence Test, Amaranthus palmeri (AMAPA); design: key: 5=81-100%, 4=61-80%, 3=41-60%, 2=21-40%, 1=0-20% damage
Method in brief: as §1

SMILES | percentage damage caused to the plant, SETFA (five-point scale) (Setaria faberi (SETFA) [1]; 250 g/Ha) | percentage damage caused to the plant, SETFA (five-point scale) (Setaria faberi (SETFA) [1]; 1000 g/ha) | Pre-emergence Test SETFA, percentage damage caused to the plant (five-point scale) (Setaria faberi (SETFA) [2]; 250 g/Ha (*)) | Pre-emergence Test SETFA, percentage damage caused to the plant (five-point scale) (Setaria faberi (SETFA) [2]; 1000 g/ha) | percentage damage caused to the plant, ECHCG (five-point scale) ([3]; 250 g/Ha) | percentage damage caused to the plant, ECHCG (five-point scale) ([3]; 1000 g/ha) | percentage damage caused to the plant, ZEAMX (five-point scale) (Zea mays (ZEAMX) [4]; 250 g/Ha) | percentage damage caused to the plant, ZEAMX (five-point scale) (Zea mays (ZEAMX) [4]; 1000 g/ha) | Pre-emergence Test ECHCG, percentage damage caused to the plant (five-point scale) ([5]; 250 g/Ha (*)) | Pre-emergence Test ECHCG, percentage damage caused to the plant (five-point scale) ([5]; 1000 g/ha) | percentage damage caused to the plant, IPOHE (five-point scale) ([6]; 250 g/Ha) | percentage damage caused to the plant, IPOHE (five-point scale) ([6]; 1000 g/ha) | Pre-emergence Test AMARE, percentage damage caused to the plant (five-point scale) ([7]; 250 g/Ha (*)) | Pre-emergence Test AMARE, percentage damage caused to the plant (five-point scale) ([7]; 1000 g/ha) | Pre-emergence Test ZEAMX, percentage damage caused to the plant (five-point scale) (Zea mays (ZEAMX) [8]; 250 g/Ha (*)) | Pre-emergence Test ZEAMX, percentage damage caused to the plant (five-point scale) (Zea mays (ZEAMX) [8]; 1000 g/ha) | percentage damage caused to the plant, AMARE (five-point scale) ([9]; 250 g/Ha) | percentage damage caused to the plant, AMARE (five-point scale) ([9]; 1000 g/ha) | Pre-emergence Test AMAPA, percentage damage caused to the plant (five-point scale) ([10]; 250 g/Ha (*)) | percentage damage caused to the plant, AMAPA (five-point scale) ([12]; 250 g/Ha) | other results
CCn1c(Cn2nc(Cl)cc2C(F)(F)F)cc(=O)c(C(=O)O)c1-c1ccc(Cl)c(Cl)c1 [Compound 104, 6-[[3-chloro-5-(trifluoromethyl)pyrazol-1-yl]methyl]-2-(3,4-dichlorophenyl)-1-ethyl-4-oxo-pyridine-3-carboxylic acid] | 4 (4=61-80%) | 4 (4=61-80%) | 5 (5=81-100%) | 5 (5=81-100%) | 4 (4=61-80%) | 4 (4=61-80%) | 4 (4=61-80%) | 4 (4=61-80%) | 5 (5=81-100%) | 5 (5=81-100%) | 4 (4=61-80%) | 3 (3=41-60%) | 1 (1=0-20%) | 1 (1=0-20%) | 2 (2=21-40%) | 5 (5=81-100%) | 3 (3=41-60%) | 4 (4=61-80%) | 1 (1=0-20%) | 3 (3=41-60%) | Pre-emergence Test AMAPA, percentage damage caused to the plant (five-point scale) ([10]; 1000 g/ha): 1 (1=0-20%); Pre-emergence Test IPOHE, percentage damage caused to the plant (five-point scale) ([11]; 250 g/Ha (*)): 1 (1=0-20%); Pre-emergence Test IPOHE, percentage damage caused to the plant (five-point scale) ([11]; 1000 g/ha): 4 (4=61-80%); percentage damage caused to the plant, AMAPA (five-point scale) ([12]; 1000 g/ha): 4 (4=61-80%)
CCn1c(Cn2cnc3ncccc32)cc(=O)c(C(=O)O)c1-c1ccc(Cl)c(Cl)c1 [Compound 125, 2-(3,4-dichlorophenyl)-1-ethyl-6-(imidazo[4,5-b]pyridin-1-ylmethyl)-4-oxo-pyridine-3-carboxylic acid] | 1 (1=0-20%) |  | 1 (1=0-20%) |  | 1 (1=0-20%) |  | 1 (1=0-20%) |  | 0 |  | 1 (1=0-20%) |  | 0 |  | 0 |  | 1 (1=0-20%) |  | 1 (1=0-20%) | 0 | Pre-emergence Test IPOHE, percentage damage caused to the plant (five-point scale) ([11]; 250 g/Ha (*)): 0
CCn1c(Cn2ccc(C(F)(F)F)n2)cc(=O)c(C(=O)O)c1-c1ccc(Cl)c(C#N)c1 [Compound 128, 2-(4-chloro-3-cyano-phenyl)-1-ethyl-4-oxo-6-[[3-(trifluoromethyl)pyrazol-1-yl]methyl]pyridine-3-carboxylic acid] | 0 | 3 (3=41-60%) |  | 3 (3=41-60%) | 1 (1=0-20%) | 4 (4=61-80%) | 0 | 1 (1=0-20%) |  | 1 (1=0-20%) | 1 (1=0-20%) | 1 (1=0-20%) |  | 1 (1=0-20%) |  | 0 | 0 | 1 (1=0-20%) |  | 0 | Pre-emergence Test AMAPA, percentage damage caused to the plant (five-point scale) ([10]; 1000 g/ha): 1 (1=0-20%); Pre-emergence Test IPOHE, percentage damage caused to the plant (five-point scale) ([11]; 1000 g/ha): 1 (1=0-20%); percentage damage caused to the plant, AMAPA (five-point scale) ([12]; 1000 g/ha): 1 (1=0-20%)
